The test system of the experiment is HER2. Kind of experiment: HER2 degradation assay with BT-474 cell line (Example 12, FACS). In kind it is cell-based, human.

Structures are written as SMILES.

`CCc1c2c(nc3ccc(OC(=O)N4CCC(CCn5ccc6cc(-n7c(O)nnc7-c7cc(C(C)C)c(O)cc7O)ccc65)CC4)cc13)-c1cc3c(c(=O)n1C2)COC(=O)[C@]3(O)CC` [SDC-TRAP-0063, 4,11-diethyl-4-hydroxy-3,14-dioxo-3,4,12,14-tetrahydro-1H-pyrano[3′,4′:6,7]indolizino[1,2-b]quinolin-9-yl 4-(2-(5-(3-(2,4-dihydroxy-5-isopropylphenyl)-5-hydroxy-4H-1,2,4-triazol-4-yl)-1H-indol-1-yl)ethyl)piperidine-1-carboxylate] showed an IC50 of 793 nM.

(Values after patent publication US10828315B2 (Madrigal Pharmaceuticals, Inc., priority 2013, dated 2020).)
